Measurements from US20140082772A1, “Herbicide-Tolerant Plants” (priority 2010, published 2014).

Test system: AHAS-inhibitor susceptible WOSR line
Assay: Plot pre-emergence crop tolerance (PHYTOX), Example 4, susceptible line
Assay type: in vivo, Brassica napus
Details: 10 DAT, crop GS 10/11, AI rate g/ha: propoxycarbazone 7, sulfosulfuron 2, flupyrsulfuron-methyl 1.8, amidosulfuron 2.75
Experimental: (§1) Plants of an AHAS-inhibitor tolerant WOSR line and plants of an AHAS-inhibitor susceptible WOSR line are sown side by side in a plot. A pre-emergence treatment of herbicides is applied to the plants by means of fine distributed nozzles. There are four replications of each treatment.
(§2) The evaluation for crop-tolerance is assessed as PHYTOX symptom caused by the chemical compounds carried out using a scale from 0 to 100%, compared to the untreated control plants. Here, 0 means no damage and 100 means complete destruction of the plants.

Row | Compound | PHYTOX % [%]
1 | COc1cc(OC)nc(NC(=O)NS(=O)(=O)N(C)S(C)(=O)=O)n1 [Amidosulfuron] | 100
2 | COC(=O)c1ccc(C(F)(F)F)nc1S(=O)(=O)NC(=O)Nc1nc(OC)cc(OC)n1 [Flupyrsulfuron-methyl] | 100
3 | CCCOc1nn(C(=O)[N-]S(=O)(=O)c2ccccc2C(=O)OC)c(=O)n1C.[Na+] [Propoxycarbazone] | 100
4 | CCS(=O)(=O)c1nc2ccccn2c1S(=O)(=O)NC(=O)Nc1nc(OC)cc(OC)n1 [Sulfosulfuron] | 99

Same assay, conditions: 29 DAT, crop GS 11/13, AI rate g/ha: propoxycarbazone 7, sulfosulfuron 2, flupyrsulfuron-methyl 1.8, amidosulfuron 2.75

Row | Compound | PHYTOX % [%]
5 | COc1cc(OC)nc(NC(=O)NS(=O)(=O)N(C)S(C)(=O)=O)n1 [Amidosulfuron] | 100
6 | COC(=O)c1ccc(C(F)(F)F)nc1S(=O)(=O)NC(=O)Nc1nc(OC)cc(OC)n1 [Flupyrsulfuron-methyl] | 100
7 | CCCOc1nn(C(=O)[N-]S(=O)(=O)c2ccccc2C(=O)OC)c(=O)n1C.[Na+] [Propoxycarbazone] | 100
8 | CCS(=O)(=O)c1nc2ccccn2c1S(=O)(=O)NC(=O)Nc1nc(OC)cc(OC)n1 [Sulfosulfuron] | 99

Test system: AHAS-inhibitor tolerant WOSR line
Assay: Plot pre-emergence crop tolerance (PHYTOX), Example 4, tolerant line
Assay type: in vivo, Brassica napus
Details: 10 DAT, crop GS 10/11, AI rate g/ha: propoxycarbazone 7, sulfosulfuron 2, flupyrsulfuron-methyl 1.8, amidosulfuron 2.75
Experimental: as §1, §2

Row | Compound | PHYTOX % [%]
9 | COc1cc(OC)nc(NC(=O)NS(=O)(=O)N(C)S(C)(=O)=O)n1 [Amidosulfuron] | 0
10 | COC(=O)c1ccc(C(F)(F)F)nc1S(=O)(=O)NC(=O)Nc1nc(OC)cc(OC)n1 [Flupyrsulfuron-methyl] | 0
11 | CCCOc1nn(C(=O)[N-]S(=O)(=O)c2ccccc2C(=O)OC)c(=O)n1C.[Na+] [Propoxycarbazone] | 0
12 | CCS(=O)(=O)c1nc2ccccn2c1S(=O)(=O)NC(=O)Nc1nc(OC)cc(OC)n1 [Sulfosulfuron] | 0

Same assay, conditions: 29 DAT, crop GS 11/13, AI rate g/ha: propoxycarbazone 7, sulfosulfuron 2, flupyrsulfuron-methyl 1.8, amidosulfuron 2.75

Row | Compound | PHYTOX % [%]
13 | COc1cc(OC)nc(NC(=O)NS(=O)(=O)N(C)S(C)(=O)=O)n1 [Amidosulfuron] | 0
14 | COC(=O)c1ccc(C(F)(F)F)nc1S(=O)(=O)NC(=O)Nc1nc(OC)cc(OC)n1 [Flupyrsulfuron-methyl] | 0
15 | CCCOc1nn(C(=O)[N-]S(=O)(=O)c2ccccc2C(=O)OC)c(=O)n1C.[Na+] [Propoxycarbazone] | 0
16 | CCS(=O)(=O)c1nc2ccccn2c1S(=O)(=O)NC(=O)Nc1nc(OC)cc(OC)n1 [Sulfosulfuron] | 0

Test system: AHAS-inhibitor tolerant WOSR line
Assay: Greenhouse post-emergence herbicide crop damage, Example 1, tolerant line
Assay type: in vivo, Brassica napus
Details: post-emergence at GS/BBCH 12, assessed 21-22 DAT
Experimental: (§3) Each pot is planted with two plants, the plants are watered from beneath and fertilized according there requirement. The pots are stored side by side in a greenhouse at 12° C. at the emergence phase. The temperature increases to 15-20° C. three weeks after sowing.
(§4) A post-emergence treatment of herbicides is applied to the plants by means of fine distributed nozzles and a water use rate of 200 L/ha at the growth stage GS/BBCH 12 (2 true leaf stage). The herbicides are tested at different rates. Five cultivar replicates are carried out per rate.
(§5) The evaluation of efficacy is assessed as crop damage caused by the herbicides using a scale from 0 to 100%, compared to the untreated control plants. Here, 0 means no damage and 100 means complete destruction of the plants. The level of efficacy is assessed 21-22 days after treatment (DAT). The efficacy results are presented as ED50 values.

Row | Compound | ED50 (crop damage, scale 0 to 100% vs untreated control) [g/ai/ha]
17 | COc1nc(C)nc(NC(=O)NS(=O)(=O)c2ccccc2Cl)n1 [Chlorsulfuron] | 2.8
18 | COc1ncc(F)c2nc(S(=O)(=O)Nc3c(F)cccc3F)nn12 [Florasulam] | 6.53
19 | COC(=O)c1ccc(C(F)(F)F)nc1S(=O)(=O)NC(=O)Nc1nc(OC)cc(OC)n1 [Flupyrsulfuron-methyl-sodium] | 63316.17
20 | COC(=O)c1ccccc1S(=O)(=O)NC(=O)Nc1nc(C)nc(OC)n1 [Metsulfuron-methyl] | 5.06
21 | CCCOc1nn(C(=O)[N-]S(=O)(=O)c2ccccc2C(=O)OC)c(=O)n1C.[Na+] [Propoxycarbazone-sodium] | 67.43
22 | CCS(=O)(=O)c1nc2ccccn2c1S(=O)(=O)NC(=O)Nc1nc(OC)cc(OC)n1 [Sulfosulfuron] | 2417.06
23 | COC(=O)c1ccccc1S(=O)(=O)NC(=O)N(C)c1nc(C)nc(OC)n1 [Tribenuron-methyl] | 25.88
24 | COc1nc(NC(=O)NS(=O)(=O)c2ccccc2C(F)(F)F)nc(C(F)(F)F)n1 [Tritosulfuron] | 42.30
25 | Trisulfuron-methyl [Trisulfuron-methyl 500] | 41.81

Test system: AHAS-inhibitor tolerant WOSR line
Assay: Greenhouse post-emergence herbicide crop damage, Example 2, tolerant line
Assay type: in vivo, Brassica napus
Details: post-emergence at GS/BBCH 10, assessed 19 DAT
Experimental: (§6) Plants of an AHAS-inhibitor tolerant WOSR line and plants of a second AHAS-inhibitor susceptible WOSR line are sown in 10 cm pots with a sandy loam. Each pot is planted with two plants, the plants are watered from beneath and fertilized according there requirement. The pots are stored side by side in a greenhouse at 12° C. at the emergence phase. The temperature increases to 15-20° C. three weeks after sowing.
(§7) A post-emergence treatment of herbicides is applied to the plants by means of fine distributed nozzles and a water use rate of 200 L/ha at the growth stage GS/BBCH 10. The herbicides are tested at different rates. Twelve cultivar replicates are carried out per rate.
(§8) The evaluation of efficacy is assessed as crop damage caused by the herbicides using a scale from 0 to 100%, compared to the untreated control plants. Here, 0 means no damage and 100 means complete destruction of the plants. The level of efficacy is assessed 19 days after treatment (DAT). The efficacy results are presented as ED50 values.

Row | Compound | ED50 (crop damage, scale 0 to 100% vs untreated control) [g/ai/ha]
26 | COc1nc(C)nc(NC(=O)NS(=O)(=O)c2ccccc2Cl)n1 [Chlorsulfuron] | 11.2
27 | COc1ncc(F)c2nc(S(=O)(=O)Nc3c(F)cccc3F)nn12 [Florasulam] | 4.9
28 | COC(=O)c1ccc(C(F)(F)F)nc1S(=O)(=O)NC(=O)Nc1nc(OC)cc(OC)n1 [Flupyrsulfuron-methyl-sodium] | 147.97
29 | COC(=O)c1ccccc1S(=O)(=O)NC(=O)Nc1nc(C)nc(OC)n1 [Metsulfuron-methyl] | 2.28
30 | CCCOc1nn(C(=O)[N-]S(=O)(=O)c2ccccc2C(=O)OC)c(=O)n1C.[Na+] [Propoxycarbazone-sodium] | 42.07
31 | CCS(=O)(=O)c1nc2ccccn2c1S(=O)(=O)NC(=O)Nc1nc(OC)cc(OC)n1 [Sulfosulfuron] | 3.29
32 | COC(=O)c1ccccc1S(=O)(=O)NC(=O)N(C)c1nc(C)nc(OC)n1 [Tribenuron-methyl] | 9.11
33 | COc1nc(NC(=O)NS(=O)(=O)c2ccccc2C(F)(F)F)nc(C(F)(F)F)n1 [Tritosulfuron] | 2.96
34 | Trisulfuron-methyl [Trisulfuron-methyl 500] | 4.48

Test system: spring-type B. napus cultivar, 45A77
Assay: not given
Details: PM-mutant gene-containing spring-type cultivar 45A77; R. Degenhardt et al., Weed Technology 19, 2005, 608; cited from earlier work

Row | Compound | effect of application on the crop
35 | COc1nc(C)nc(NC(=O)NS(=O)(=O)c2ccsc2C(=O)O)n1 [thifensulfuron] | reduced canola biomass, herbicide injury symptoms, or delayed maturity

Test system: AHAS-inhibitor tolerant WOSR line
Assay: Plot post-emergence crop tolerance (PHYTOX), Example 3, WOSR
Assay type: in vivo, Brassica napus
Details: post-emergence at GS 12/13, 15 DAT, crop GS 14/15, AI rate g/ha: flupyrsulfuron-methyl-sodium 5, thifensulfuron-methyl 15, tritosulfuron 25, tribenuron-methyl 15
Experimental: (§9) Plants of an AHAS-inhibitor tolerant WOSR line and plants of an AHAS-tolerant SOSR line are sown side by side in a plot. A post-emergence treatment of herbicides is applied to the plants by means of fine distributed nozzles at the growth stage GS/BBCH 12/13. There are four replications of each treatment.
as §2

Row | Compound | PHYTOX % [%]
36 | COC(=O)c1ccc(C(F)(F)F)nc1S(=O)(=O)NC(=O)Nc1nc(OC)cc(OC)n1 [Flupyrsulfuron-methyl-sodium] | 11
37 | COC(=O)c1sccc1S(=O)(=O)NC(=O)Nc1nc(C)nc(OC)n1 [Thifensulfuron-methyl] | 13
38 | COC(=O)c1ccccc1S(=O)(=O)NC(=O)N(C)c1nc(C)nc(OC)n1 [Tribenuron-methyl] | 17
39 | COc1nc(NC(=O)NS(=O)(=O)c2ccccc2C(F)(F)F)nc(C(F)(F)F)n1 [Tritosulfuron] | 43

Test system: AHAS-tolerant SOSR line
Assay: Plot post-emergence crop tolerance (PHYTOX), Example 3, SOSR
Assay type: in vivo, Brassica napus
Details: post-emergence at GS 12/13, 15 DAT, crop GS 13/14, AI rate g/ha: flupyrsulfuron-methyl-sodium 5, thifensulfuron-methyl 15, tritosulfuron 25, tribenuron-methyl 15
Experimental: as §9, §2

Row | Compound | PHYTOX % [%]
40 | COC(=O)c1ccc(C(F)(F)F)nc1S(=O)(=O)NC(=O)Nc1nc(OC)cc(OC)n1 [Flupyrsulfuron-methyl-sodium] | 19
41 | COC(=O)c1sccc1S(=O)(=O)NC(=O)Nc1nc(C)nc(OC)n1 [Thifensulfuron-methyl] | 23
42 | COC(=O)c1ccccc1S(=O)(=O)NC(=O)N(C)c1nc(C)nc(OC)n1 [Tribenuron-methyl] | 25
43 | COc1nc(NC(=O)NS(=O)(=O)c2ccccc2C(F)(F)F)nc(C(F)(F)F)n1 [Tritosulfuron] | 53

Test system: first AHAS-inhibitor susceptible WOSR line
Assay: Greenhouse post-emergence herbicide crop damage, Example 1, susceptible line
Assay type: in vivo, Brassica napus
Details: post-emergence at GS/BBCH 12, assessed 21-22 DAT
Experimental: as §3, §4, §5

Row | Compound | ED50 (crop damage, scale 0 to 100% vs untreated control) [g/ai/ha]
44 | COc1nc(C)nc(NC(=O)NS(=O)(=O)c2ccccc2Cl)n1 [Chlorsulfuron] | 0.42
45 | COc1ncc(F)c2nc(S(=O)(=O)Nc3c(F)cccc3F)nn12 [Florasulam] | 1.51
46 | COC(=O)c1ccc(C(F)(F)F)nc1S(=O)(=O)NC(=O)Nc1nc(OC)cc(OC)n1 [Flupyrsulfuron-methyl-sodium] | 0.58
47 | COC(=O)c1ccccc1S(=O)(=O)NC(=O)Nc1nc(C)nc(OC)n1 [Metsulfuron-methyl] | 0.57
48 | CCCOc1nn(C(=O)[N-]S(=O)(=O)c2ccccc2C(=O)OC)c(=O)n1C.[Na+] [Propoxycarbazone-sodium] | 2.16
49 | CCS(=O)(=O)c1nc2ccccn2c1S(=O)(=O)NC(=O)Nc1nc(OC)cc(OC)n1 [Sulfosulfuron] | 1.70
50 | COC(=O)c1ccccc1S(=O)(=O)NC(=O)N(C)c1nc(C)nc(OC)n1 [Tribenuron-methyl] | 2.59
51 | COc1nc(NC(=O)NS(=O)(=O)c2ccccc2C(F)(F)F)nc(C(F)(F)F)n1 [Tritosulfuron] | 0.39
52 | Trisulfuron-methyl [Trisulfuron-methyl 500] | 3.36

Test system: second AHAS-inhibitor susceptible WOSR line
Assay: Greenhouse post-emergence herbicide crop damage, Example 2, susceptible line
Assay type: in vivo, Brassica napus
Details: post-emergence at GS/BBCH 10, assessed 19 DAT
Experimental: as §6, §7, §8

Row | Compound | ED50 (crop damage, scale 0 to 100% vs untreated control) [g/ai/ha]
53 | COc1nc(C)nc(NC(=O)NS(=O)(=O)c2ccccc2Cl)n1 [Chlorsulfuron] | 0.04
54 | COc1ncc(F)c2nc(S(=O)(=O)Nc3c(F)cccc3F)nn12 [Florasulam] | 0.28
55 | COC(=O)c1ccc(C(F)(F)F)nc1S(=O)(=O)NC(=O)Nc1nc(OC)cc(OC)n1 [Flupyrsulfuron-methyl-sodium] | 0.79
56 | COC(=O)c1ccccc1S(=O)(=O)NC(=O)Nc1nc(C)nc(OC)n1 [Metsulfuron-methyl] | 0.17
57 | CCCOc1nn(C(=O)[N-]S(=O)(=O)c2ccccc2C(=O)OC)c(=O)n1C.[Na+] [Propoxycarbazone-sodium] | 0.17
58 | CCS(=O)(=O)c1nc2ccccn2c1S(=O)(=O)NC(=O)Nc1nc(OC)cc(OC)n1 [Sulfosulfuron] | 0.01
59 | COC(=O)c1ccccc1S(=O)(=O)NC(=O)N(C)c1nc(C)nc(OC)n1 [Tribenuron-methyl] | 0.11
60 | COc1nc(NC(=O)NS(=O)(=O)c2ccccc2C(F)(F)F)nc(C(F)(F)F)n1 [Tritosulfuron] | 1.76
61 | Trisulfuron-methyl [Trisulfuron-methyl 500] | 0.03
